This data set has as its system SK-N-SH cells. The data set can be described thus: MTT viability with dexamethasone. The data set is classed as cell-based, human. The following applies: 24 h. The protocol: Preliminary results: The expression of GILZ in human neuroblastoma cells was evaluated. […] After resting, the cells were cultured with increasing concentrations of dexamethasone (Dex: 0-10 μM) for 24 h and viability was determined by the MTT assay by measuring the absorbance of the intracellular formazon resulting from the reduction of the yellow tetrazolium MTT by the cell metabolic activity. Absorbance of vehicle treated cells was taken as 100% viable. GILZ expression was measured in protein extracts from separate SK-N-SH cultures by Western blot analysis using GILZ mAb [Santa Cruz Biotechnology, Dallas, Tex.]. Total RNA isolated from similar SK-N-SH cultures was reverse transcribed and the GILZ mRNA was amplified using the SYBR green qPCR mix (SA Biosciences, Fredrick, Md.) on the ABI Prism 7000 system (Applied Biosystem, Calif.).

In the case of `C[C@@H]1C[C@H]2[C@@H]3CCC4=CC(=O)C=C[C@]4(C)[C@@]3(F)[C@@H](O)C[C@]2(C)[C@@]1(O)C(=O)CO` [DEX, dexamethasone], the “toxicity (MTT viability)” value (1 μM) is “not toxic”. Also, under “10 μM”, the reduction of viability was 25%.
